According to patent US7790898B2, “Substituted 3-phenylpiperidine compounds, their preparation and use” (Gruenenthal GmbH, priority 2004, dated 2010):

Tested on: L-calcium channel benzothiazepine binding site
Experiment: Binding at the L-calcium channel benzothiazepine binding site (diltiazem binding)
Conditions: 10 μM test compound; [3H]-cis-(+)-diltiazem 5 nM; rat cerebral cortex membranes; 20 minutes at 25° C.
Procedure: Biological Data: Investigations on Binding at the L-Calcium Channel Benzothiazepine Binding Site (Diltiazem Binding)
The biological membrane material was isolated from rat cerebral cortex. [^3H]-cis-(+)-diltiazem (5 nM in the batch) was used as ligand. Incubation was for 20 minutes at 25° C. The radioactivity measured in the presence of (±)-diltiazem (10^−6 M in the batch) is defined as the non-specific binding. The non-bound fraction of the radioactive ligand was separated after completion of the incubation, using a filtration process through Whatman glass fiber GF/B membranes. After being washed, the membranes were then measured in a β-counter. The method was developed based on the publication by Schoemaker and Langer (H. Schoemaker and S. Z. Langer (1985) Eur. J. Pharmacol. 111, 273-277).

Row | Compound | Diltiazem binding [10 μM] % inhibition [%]
1 | COc1cccc(C2(O)CCCN(C(=O)c3ccc(C)cc3)C2)c1 (centres unmarked) [Example 9, [3-hydroxy-3-(3-methoxyphenyl)-piperidine-1-yl]-p-tolyl-methanone] | 55.8
2 | COc1cccc(C2(O)CCCN(Cc3cccc(F)c3)C2)c1.Cl (centres unmarked) [Example 32, 1-(3-fluorobenzyl)-3-(3-methoxyphenyl)-piperidine-3-ol hydrochloride] | 83.7
3 | COc1cccc(C2(O)CCCN(Cc3ccc(F)cc3)C2)c1.Cl (centres unmarked) [Example 33, 1-(4-fluorobenzyl)-3-(3-methoxyphenyl)-piperidine-3-ol hydrochloride] | 95
4 | COc1cccc(C2(O)CCCN(Cc3ccc(Br)cc3)C2)c1.Cl (centres unmarked) [Example 34, 1-(4-bromobenzyl)-3-(3-methoxyphenyl)-piperidine-3-ol hydrochloride] | 78.7
5 | COc1cccc(C2(O)CCCN(Cc3cc(F)cc(F)c3)C2)c1.Cl (centres unmarked) [Example 36, 1-(3,5-difluorobenzyl)-3-(3-methoxyphenyl)-piperidine-3-ol hydrochloride] | 57.4
6 | COc1cccc(C2(O)CCCN(Cc3ccc(Cl)c(Cl)c3)C2)c1.Cl (centres unmarked) [Example 37, 1-(3,4-dichlorbenzyl)-3-(3-methoxyphenyl)-piperidine-3-ol hydrochloride] | 80.7
7 | COc1cccc(C2(O)CCCN(Cc3ccc(C)cc3)C2)c1.Cl (centres unmarked) [Example 39, 3-(3-methoxyphenyl)-1-(4-methylbenzyl)-piperidine-3-ol hydrochloride] | 76
8 | COc1cccc(C2(O)CCCN(Cc3cccc(C(F)(F)F)c3)C2)c1.Cl (centres unmarked) [Example 40, 3-(3-methoxyphenyl)-1-(3-trifluoromethylbenzyl)-piperidine-3-ol hydrochloride] | 85.9
9 | COc1cccc(C2(O)CCCN(CCOc3ccccc3)C2)c1.Cl (centres unmarked) [Example 41, 3-(3-methoxyphenyl)-1-(2-phenoxy-ethyl)-piperidine-3-ol hydrochloride] | 92.7
10 | COc1cccc(C2(O)CCCN(Cc3ccc([N+](=O)[O-])cc3)C2)c1.Cl (centres unmarked) [Example 42, 3-(3-methoxyphenyl)-1-(4-nitrobenzyl)-piperidine-3-ol hydrochloride] | 50
11 | COc1ccc(CN2CCCC(O)(c3cccc(C)c3)C2)cc1.Cl (centres unmarked) [Example 43, 1-(4-methoxybenzyl)-3-(3-methylphenyl)-piperidine-3-ol hydrochloride] | 55
12 | COc1cccc(C2(O)CCCN(Cc3ccc(C#N)cc3)C2)c1.Cl (centres unmarked) [Example 44, 4-[3-hydroxy-3-(3-methoxyphenyl)-piperidine-1-ylmethyl]-benzonitrile hydrochloride] | 52.3
13 | COc1cccc(C2(O)CCCN(Cc3cccs3)C2)c1.Cl (centres unmarked) [Example 46, 3-(3-methoxyphenyl)-1-thiophen-2-ylmethyl-piperidine-3-ol hydrochloride] | 81.8
14 | COc1cccc(C2(O)CCCN(CCc3ccccc3)C2)c1.Cl (centres unmarked) [Example 47, 3-(3-methoxyphenyl)-1-phenethyl-piperidine-3-ol hydrochloride] | 79.4
15 | COc1cccc(C2(O)CCCN(CC(c3ccccc3)c3ccccc3)C2)c1.Cl (centres unmarked) [Example 48, 1-(2,2-diphenyl-ethyl)-3-(3-methoxyphenyl)-piperidine-3-ol hydrochloride] | 88.2
16 | COc1cccc(C2(O)CCCN(Cc3cccc(Br)c3)C2)c1.Cl (centres unmarked) [Example 49, 1-(3-bromobenzyl)-3-(3-methoxyphenyl)-piperidine-3-ol hydrochloride] | 90.4
17 | COc1cccc(C2(O)CCCN(Cc3ccc(C)c([N+](=O)[O-])c3)C2)c1.Cl (centres unmarked) [Example 50, 3-(3-methoxyphenyl)-1-(4-methyl-3-nitro-benzyl)-piperidine-3-ol hydrochloride] | 73.8
18 | COc1cccc(C2(O)CCCN(Cc3ccc(Cl)c([N+](=O)[O-])c3)C2)c1.Cl (centres unmarked) [Example 51, 1-(4-chloro-3-nitro-benzyl)-3-(3-methoxyphenyl)-piperidine-3-ol hydrochloride] | 81.4
19 | COc1cccc(C2(O)CCCN(Cc3cc(C(F)(F)F)cc(C(F)(F)F)c3)C2)c1.Cl (centres unmarked) [Example 52, 1-(3,5-bis-trifluoromethyl-benzyl)-3-(3-methoxyphenyl)-piperidine-3-ol hydrochloride] | 75.9

Same assay, conditions: radioligand; rat cerebral cortex membranes; N=3, mean ±SEM; read-out: KD value for this high affinity binding site

Row | Compound | Kd [nM]
20 | [^3H]-cis-(+)-diltiazem [reference compound] | 4.1 ± 0.75
